One experiment deals with T1, HiBit-BRM fusion protein (Homo sapiens, UniProt P51531).
T1 construct: expressed in transfected cells
The experiment can be described thus: HiBiT-BRM cell-based degradation assay (Nano-Glo HiBiT Lytic Detection, 24 h). Conditions: HeLa cells expressing HiBiT-BRM; for DC50: read-out: BRM HiBit Degradation IC50; for BRM HiBit Degradation Maximum measured: top dose 30 μM. The method in brief: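 HeLa cells stably expressing HiBiT-BRM were treated for 24 h with compounds (10-point 3-fold dilutions, 30 μM final top dose, in duplicate). HiBiT was detected by lytic LgBiT complementation luminescence. % degradation was normalized to DMSO (high control) and 2 μM of a reference BRM/BRG1 degrader (low control).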

In experiment [1] the target is T2, HiBit-BRG1 fusion protein (Homo sapiens, UniProt P51532).
T2 construct: expressed in transfected cells
The experiment can be described thus: HiBiT-BRG1 cell-based degradation assay (Nano-Glo HiBiT Lytic Detection, 24 h). To be noted: HeLa cells expressing HiBit-BRG1 and LgBit; for DC50: read-out: BRG1 HiBit Degradation IC50; for Dmax: HeLa, top dose 30 μM, read-out: BRG1 HiBit Degradation Maximum measured. The method in brief: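 Stable HeLa line expressing HiBiT-BRG1 and LgBiT, seeded at 5000 cells/well; luminescence read after lytic Nano-Glo HiBiT reagent and 10 min shaking at RT. % degradation normalised between DMSO (high control) and 2 μM reference BRM/BRG1 degrader (low control).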
On the technique in general: With HiBiT, luminescence reflects the tagged protein that the partner subunit can reach.

14 molecules from patent US12662479B2 (Foghorn Therapeutics Inc., priority 2020, dated 2026) can be followed below.

Molecules are shown by their SMILES. Some results are limits rather than exact numbers.

T2 sequence (P51532 whole entry, the tested form may be a part): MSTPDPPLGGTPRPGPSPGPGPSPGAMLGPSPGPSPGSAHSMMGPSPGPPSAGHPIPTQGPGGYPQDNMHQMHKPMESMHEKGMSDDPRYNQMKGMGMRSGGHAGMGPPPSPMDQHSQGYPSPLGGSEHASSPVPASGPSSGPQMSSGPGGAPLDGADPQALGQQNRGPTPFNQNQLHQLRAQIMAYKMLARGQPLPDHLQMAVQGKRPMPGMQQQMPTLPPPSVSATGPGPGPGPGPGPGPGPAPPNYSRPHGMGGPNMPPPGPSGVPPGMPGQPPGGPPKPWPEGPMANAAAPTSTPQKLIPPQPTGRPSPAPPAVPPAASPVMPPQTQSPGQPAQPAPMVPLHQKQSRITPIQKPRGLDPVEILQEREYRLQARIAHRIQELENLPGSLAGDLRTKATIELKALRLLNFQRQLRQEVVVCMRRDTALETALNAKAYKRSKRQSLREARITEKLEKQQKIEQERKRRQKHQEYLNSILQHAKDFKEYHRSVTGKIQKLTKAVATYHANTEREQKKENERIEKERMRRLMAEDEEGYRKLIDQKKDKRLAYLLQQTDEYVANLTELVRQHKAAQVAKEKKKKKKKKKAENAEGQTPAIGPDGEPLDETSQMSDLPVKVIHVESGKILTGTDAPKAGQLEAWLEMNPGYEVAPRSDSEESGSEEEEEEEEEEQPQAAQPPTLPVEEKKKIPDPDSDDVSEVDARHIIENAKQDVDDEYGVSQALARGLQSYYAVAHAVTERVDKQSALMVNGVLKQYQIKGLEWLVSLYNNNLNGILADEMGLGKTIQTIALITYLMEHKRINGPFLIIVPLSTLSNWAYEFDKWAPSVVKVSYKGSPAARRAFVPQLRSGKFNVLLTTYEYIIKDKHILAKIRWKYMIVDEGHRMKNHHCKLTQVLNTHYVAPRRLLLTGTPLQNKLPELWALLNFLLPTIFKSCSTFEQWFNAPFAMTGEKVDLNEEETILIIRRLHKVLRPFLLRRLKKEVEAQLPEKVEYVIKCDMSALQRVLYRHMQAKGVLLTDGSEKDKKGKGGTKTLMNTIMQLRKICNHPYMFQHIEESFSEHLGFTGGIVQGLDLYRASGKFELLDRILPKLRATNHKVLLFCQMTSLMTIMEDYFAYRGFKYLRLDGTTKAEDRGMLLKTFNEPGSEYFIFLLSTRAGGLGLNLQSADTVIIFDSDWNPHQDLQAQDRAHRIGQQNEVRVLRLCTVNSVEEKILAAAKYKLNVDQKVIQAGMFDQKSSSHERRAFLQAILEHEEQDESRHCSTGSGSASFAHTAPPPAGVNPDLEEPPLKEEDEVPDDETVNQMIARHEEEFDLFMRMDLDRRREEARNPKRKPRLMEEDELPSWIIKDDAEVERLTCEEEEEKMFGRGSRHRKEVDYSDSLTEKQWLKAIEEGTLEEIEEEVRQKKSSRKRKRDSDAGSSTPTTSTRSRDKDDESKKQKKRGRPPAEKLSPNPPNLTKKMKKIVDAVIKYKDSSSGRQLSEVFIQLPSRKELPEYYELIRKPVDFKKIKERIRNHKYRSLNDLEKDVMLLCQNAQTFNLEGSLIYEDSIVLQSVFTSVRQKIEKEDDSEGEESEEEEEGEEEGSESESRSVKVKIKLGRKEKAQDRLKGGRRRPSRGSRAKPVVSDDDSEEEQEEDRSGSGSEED
T1 sequence (P51531 whole entry, the tested form may be a part): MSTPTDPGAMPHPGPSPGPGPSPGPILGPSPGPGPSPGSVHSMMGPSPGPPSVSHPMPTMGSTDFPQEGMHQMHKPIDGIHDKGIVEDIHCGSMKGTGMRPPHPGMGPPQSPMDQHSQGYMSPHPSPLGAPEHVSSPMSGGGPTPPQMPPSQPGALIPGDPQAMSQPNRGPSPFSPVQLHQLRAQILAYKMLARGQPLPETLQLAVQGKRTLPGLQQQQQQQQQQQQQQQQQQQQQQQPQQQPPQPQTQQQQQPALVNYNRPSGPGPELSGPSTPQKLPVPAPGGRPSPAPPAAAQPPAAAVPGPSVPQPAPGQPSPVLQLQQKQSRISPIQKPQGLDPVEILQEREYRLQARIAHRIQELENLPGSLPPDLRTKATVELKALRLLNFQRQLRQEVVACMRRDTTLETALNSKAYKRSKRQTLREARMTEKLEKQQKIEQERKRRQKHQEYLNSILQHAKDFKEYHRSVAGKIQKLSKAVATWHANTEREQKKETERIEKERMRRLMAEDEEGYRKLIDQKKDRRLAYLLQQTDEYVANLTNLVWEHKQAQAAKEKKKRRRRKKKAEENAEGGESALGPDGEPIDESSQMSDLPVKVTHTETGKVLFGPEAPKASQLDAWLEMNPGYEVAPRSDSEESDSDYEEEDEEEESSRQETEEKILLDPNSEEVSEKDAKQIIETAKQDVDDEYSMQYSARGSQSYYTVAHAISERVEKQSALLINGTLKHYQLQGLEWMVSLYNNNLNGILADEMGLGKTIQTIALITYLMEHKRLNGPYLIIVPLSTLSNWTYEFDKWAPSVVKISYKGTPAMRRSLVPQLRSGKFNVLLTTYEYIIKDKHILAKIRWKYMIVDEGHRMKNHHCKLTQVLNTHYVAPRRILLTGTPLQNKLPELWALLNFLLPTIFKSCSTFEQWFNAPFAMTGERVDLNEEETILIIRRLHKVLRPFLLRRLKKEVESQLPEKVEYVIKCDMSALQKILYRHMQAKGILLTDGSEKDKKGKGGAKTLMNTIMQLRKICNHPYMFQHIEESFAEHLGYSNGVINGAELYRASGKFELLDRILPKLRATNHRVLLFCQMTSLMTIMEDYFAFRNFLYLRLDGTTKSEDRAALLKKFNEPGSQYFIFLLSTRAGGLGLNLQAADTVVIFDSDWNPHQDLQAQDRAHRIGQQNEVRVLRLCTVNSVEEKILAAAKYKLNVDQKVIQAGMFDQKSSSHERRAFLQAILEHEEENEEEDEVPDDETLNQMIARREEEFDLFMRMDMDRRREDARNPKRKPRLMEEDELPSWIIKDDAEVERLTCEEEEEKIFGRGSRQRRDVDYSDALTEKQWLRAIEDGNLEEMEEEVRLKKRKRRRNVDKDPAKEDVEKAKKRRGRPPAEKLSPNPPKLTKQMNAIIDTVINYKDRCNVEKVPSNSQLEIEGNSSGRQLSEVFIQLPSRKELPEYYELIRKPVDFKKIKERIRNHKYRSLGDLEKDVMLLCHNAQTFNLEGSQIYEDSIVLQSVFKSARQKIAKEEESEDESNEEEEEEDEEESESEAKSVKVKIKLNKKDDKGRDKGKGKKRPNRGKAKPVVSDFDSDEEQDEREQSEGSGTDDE

Turning to `CS(=O)(=O)n1ccc(C(=O)N[C@@H](CCOCCCC(=O)N2CCN(CCCOc3ccc4c(c3)C(=O)N(C3CCC(=O)NC3=O)C4=O)CC2)C(=O)Nc2nc(-c3ccccc3)cs2)c1` (stereo partly drawn) [Compound 255, (2S)-4-[4-[4-(3-[[2-(2,6-dioxopiperidin-3-yl)-1,3-dioxoisoindol-5-yl]oxy]propyl)piperazin-1-yl]-4-oxobutoxy]-2-[(1-methanesulfonylpyrrol-3-yl)formamido]-N-(4-phenyl-1,3-thiazol-2-yl)butanamide], on HiBit-BRM fusion protein, the DC50 was greater than 10 µM and the “BRM HiBit Degradation Maximum measured” value was “C (‘C’ = Maximum degradation <50%)”. In addition, in experiment [1], the DC50 is greater than 10 µM and the Dmax is less than 50%.
As to `CS(=O)(=O)n1ccc(C(=O)N[C@@H](CCOCCCC(=O)N2CC(Oc3ccc4c(c3)C(=O)N(C3CCC(=O)NC3=O)C4=O)C2)C(=O)Nc2nc(-c3ccccc3)cs2)c1` (stereo partly drawn) [Compound 256, (2S)-4-[4-(3-[[2-(2,6-dioxopiperidin-3-yl)-1,3-dioxoisoindol-5-yl]oxy]azetidin-1-yl)-4-oxobutoxy]-2-[(1-methanesulfonylpyrrol-3-yl)formamido]-N-(4-phenyl-1,3-thiazol-2-yl)butanamide], on HiBit-BRM fusion protein, the DC50 is greater than 10 µM and the “BRM HiBit Degradation Maximum measured” value was “C (‘C’ = Maximum degradation <50%)”. Further, in experiment [1], the DC50 was greater than 10 µM and the Dmax was less than 50%.
For `CS(=O)(=O)n1ccc(C(=O)N[C@@H](CCOCCCC(=O)N2CCC(CCCCN3CCN(c4ccc5c(c4)C(=O)N(C4CCC(=O)NC4=O)C5=O)CC3)CC2)C(=O)Nc2nc(-c3ccccc3)cs2)c1` (some centres unmarked) [Compound 257], on HiBit-BRM fusion protein, the DC50 is greater than 10 µM and the “BRM HiBit Degradation Maximum measured” value is recorded as “C (‘C’ = Maximum degradation <50%)”. Moreover, in experiment [1], the DC50 was greater than 10 µM and the Dmax was less than 50%.
`CS(=O)(=O)n1ccc(C(=O)N[C@@H](CCOCCCC(=O)NCCOCCOCCOCCNC(=O)COc2cccc3c2C(=O)N(C2CCC(=O)NC2=O)C3=O)C(=O)Nc2nc(-c3ccccc3)cs2)c1` (stereo partly drawn) [Compound 258, (2S)-4-(3-[[2-(2-[2-[2-(2-[[2-(2,6-dioxopiperidin-3-yl)-1,3-dioxoisoindol-4-yl]oxy]acetamido)ethoxy]ethoxy]ethoxy)ethyl]carbamoyl]propoxy)-2-[(1-methanesulfonylpyrrol-3-yl)formamido]-N-(4-phenyl-1,3-thiazol-2-yl)butanamide]: at HiBit-BRM fusion protein, the DC50 is greater than 10 µM and the “BRM HiBit Degradation Maximum measured” value was “C (‘C’ = Maximum degradation <50%)”. In experiment [1], the DC50 was greater than 10 µM and the Dmax was less than 50%.
`CS(=O)(=O)n1ccc(C(=O)N[C@@H](CCOCCCC(=O)N2CC(COc3cccc4c3C(=O)N(C3CCC(=O)NC3=O)C4=O)C2)C(=O)Nc2nc(-c3ccccc3)cs2)c1` (stereo partly drawn) [Compound 259, (2S)-4-[4-[3-([[2-(2,6-dioxopiperidin-3-yl)-1,3-dioxoisoindol-4-yl]oxy]methyl)azetidin-1-yl]-4-oxobutoxy]-2-[(1-methanesulfonylpyrrol-3-yl)formamido]-N-(4-phenyl-1,3-thiazol-2-yl)butanamide]: on HiBit-BRM fusion protein, the DC50 is greater than 10 µM and the “BRM HiBit Degradation Maximum measured” value is on record as “C (‘C’ = Maximum degradation <50%)”. For the same molecule, in experiment [1], the DC50 is greater than 10 µM and the Dmax is less than 50%.
`CS(=O)(=O)n1ccc(C(=O)N[C@@H](CCOCCCC(=O)N2CC(COc3ccc4c(c3)C(=O)N(C3CCC(=O)NC3=O)C4=O)C2)C(=O)Nc2nc(-c3ccccc3)cs2)c1` (stereo partly drawn) [Compound 260, (2S)-4-[4-[3-([[2-(2,6-dioxopiperidin-3-yl)-1,3-dioxoisoindol-5-yl]oxy]methyl)azetidin-1-yl]-4-oxobutoxy]-2-[(1-methanesulfonylpyrrol-3-yl)formamido]-N-(4-phenyl-1,3-thiazol-2-yl)butanamide]: at HiBit-BRM fusion protein, the DC50 was greater than 10 µM and the “BRM HiBit Degradation Maximum measured” value is reported as “C (‘C’ = Maximum degradation <50%)”. Moreover, in experiment [1], the DC50 was greater than 10 µM and the Dmax is less than 50%.
Regarding `CS(=O)(=O)n1ccc(C(=O)N[C@@H](CCOCCCC(=O)NCCOCc2cccc(COCCOc3ccc4c(c3)C(=O)N(C3CCC(=O)NC3=O)C4=O)c2)C(=O)Nc2nc(-c3ccccc3)cs2)c1` (stereo partly drawn) [Compound 261, (2S)-4-(3-[[2-([3-[(2-[[2-(2,6-dioxopiperidin-3-yl)-1,3-dioxoisoindol-5-yl]oxy]ethoxy)methyl]phenyl]methoxy)ethyl]carbamoyl]propoxy)-2-[(1-methanesulfonylpyrrol-3-yl)formamido]-N-(4-phenyl-1,3-thiazol-2-yl)butanamide], at HiBit-BRM fusion protein, the DC50 is greater than 10 µM and the “BRM HiBit Degradation Maximum measured” value is “C (‘C’ = Maximum degradation <50%)”. In experiment [1], the DC50 is greater than 10 µM and the Dmax was less than 50%.
As for `CS(=O)(=O)n1ccc(C(=O)N[C@@H](CCOCCCC(=O)N2CCC3(CC2)CC(Oc2ccc4c(c2)C(=O)N(C2CCC(=O)NC2=O)C4=O)C3)C(=O)Nc2nc(-c3ccccc3)cs2)c1` (stereo partly drawn) [Compound 262, (2S)-4-[4-(2-[[2-(2,6-dioxopiperidin-3-yl)-1,3-dioxoisoindol-5-yl]oxy]-7-azaspiro[3.5]nonan-7-yl)-4-oxobutoxy]-2-[(1-methanesulfonylpyrrol-3-yl)formamido]-N-(4-phenyl-1,3-thiazol-2-yl)butanamide], on HiBit-BRM fusion protein, the DC50 is greater than 10 µM and the “BRM HiBit Degradation Maximum measured” value is “C (‘C’ = Maximum degradation <50%)”. Further, in experiment [1], the DC50 is greater than 10 µM and the Dmax is less than 50%.
Regarding `CS(=O)(=O)n1ccc(C(=O)N[C@@H](CCOCCCC(=O)N2CCN(CCCC#Cc3ccc4c(c3)C(=O)N(C3CCC(=O)NC3=O)C4=O)CC2)C(=O)Nc2nc(-c3ccccc3)cs2)c1` (stereo partly drawn) [Compound 263, (2S)-4-[4-(4-[5-[2-(2,6-dioxopiperidin-3-yl)-1,3-dioxoisoindol-5-yl]pent-4-yn-1-yl]piperazin-1-yl)-4-oxobutoxy]-2-[(1-methanesulfonylpyrrol-3-yl)formamido]-N-(4-phenyl-1,3-thiazol-2-yl)butanamide; formic acid], on HiBit-BRM fusion protein, the DC50 was greater than 10 µM and the “BRM HiBit Degradation Maximum measured” value is recorded as “C (‘C’ = Maximum degradation <50%)”. In experiment [1], the DC50 is greater than 10 µM and the Dmax is less than 50%.
`Cc1ncsc1-c1ccc(CNC(=O)[C@@H]2C[C@@H](O)CN2C(=O)[C@@H](NC(=O)CCCCC(=O)NCCCC[C@H](NC(=O)c2ccn(S(C)(=O)=O)c2)C(=O)Nc2nc(-c3ccccc3)cs2)C(C)(C)C)cc1` [Compound 264, N-[(2S)-1-[(2S,4R)-4-hydroxy-2-([[4-(4-methyl-1,3-thiazol-5-yl)phenyl]methyl]carbamoyl)pyrrolidin-1-yl]-3,3-dimethyl-1-oxobutan-2-yl]-N-[(5S)-5-[(1-methanesulfonylpyrrol-3-yl)formamido]-5-[(4-phenyl-1,3-thiazol-2-yl)carbamoyl]pentyl]hexanediamide]: on HiBit-BRM fusion protein, the DC50 was greater than 10 µM and the “BRM HiBit Degradation Maximum measured” value is reported as “C (‘C’ = Maximum degradation <50%)”. In experiment [1], the DC50 is greater than 10 µM and the Dmax was less than 50%.
For `Cc1ncsc1-c1ccc(CNC(=O)[C@@H]2C[C@@H](O)CN2C(=O)[C@@H](NC(=O)CCCCCCCCCCC(=O)NCCCC[C@H](NC(=O)c2ccn(S(C)(=O)=O)c2)C(=O)Nc2nc(-c3ccccc3)cs2)C(C)(C)C)cc1` [Compound 265], at HiBit-BRM fusion protein, the DC50 was greater than 10 µM and the “BRM HiBit Degradation Maximum measured” value was “C (‘C’ = Maximum degradation <50%)”. Besides, in experiment [1], the DC50 was greater than 10 µM and the Dmax is less than 50%.
Consider `Cc1ncsc1-c1ccc(CNC(=O)[C@@H]2C[C@@H](O)CN2C(=O)[C@@H](NC(=O)CCCCCCC(=O)NCCCC[C@H](NC(=O)c2ccn(S(C)(=O)=O)c2)C(=O)Nc2nc(-c3ccccc3)cs2)C(C)(C)C)cc1` [Compound 266, N′-[(2S)-1-[(2S,4R)-4-hydroxy-2-([[4-(4-methyl-1,3-thiazol-5-yl)phenyl]methyl]carbamoyl)pyrrolidin-1-yl]-3,3-dimethyl-1-oxobutan-2-yl]-N-[(5S)-5-[(1-methanesulfonylpyrrol-3-yl)formamido]-5-[(4-phenyl-1,3-thiazol-2-yl)carbamoyl]pentyl]octanediamide], for which, on HiBit-BRM fusion protein, the DC50 was greater than 10 µM and the “BRM HiBit Degradation Maximum measured” value was “C (‘C’ = Maximum degradation <50%)”. Further, in experiment [1], the DC50 is greater than 10 µM and the Dmax is less than 50%.
In the case of `Cc1ncsc1-c1ccc(CNC(=O)[C@@H]2C[C@@H](O)CN2C(=O)[C@@H](NC(=O)CCCCCCCCCCCCC(=O)NCCCC[C@H](NC(=O)c2ccn(S(C)(=O)=O)c2)C(=O)Nc2nc(-c3ccccc3)cs2)C(C)(C)C)cc1` [Compound 267, N-[(2S)-1-[(2S,4R)-4-hydroxy-2-([[4-(4-methyl-1,3-thiazol-5-yl)phenyl]methyl]carbamoyl)pyrrolidin-1-yl]-3,3-dimethyl-1-oxobutan-2-yl]-N-[(5S)-5-[(1-methanesulf-onylpyrrol-3-yl)formamido]-5-[(4-phenyl-1,3-thiazol-2-yl)carbamoyl]pentyl]tetradecanediamide], at HiBit-BRM fusion protein, the DC50 was greater than 10 µM and the “BRM HiBit Degradation Maximum measured” value is listed as “C (‘C’ = Maximum degradation <50%)”. In addition, in experiment [1], the DC50 is greater than 10 µM and the Dmax is less than 50%.
On to `Cc1ncsc1-c1ccc(CNC(=O)[C@@H]2C[C@@H](O)CN2C(=O)[C@@H](NC(=O)CCCCCCCCC(=O)NCCCC[C@H](NC(=O)c2ccn(S(C)(=O)=O)c2)C(=O)Nc2nc(-c3ccccc3)cs2)C(C)(C)C)cc1` [Compound 268], for which, at HiBit-BRM fusion protein, the DC50 is greater than 10 µM and the “BRM HiBit Degradation Maximum measured” value was “C (‘C’ = Maximum degradation <50%)”. For the same molecule, in experiment [1], the DC50 is greater than 10 µM and the Dmax is less than 50%.
